Measured values reported in patent publication US9302999B2, “Substituted triazoles as herbicides” (E. I. DU PONT DE NEMOURS AND COMPANY, priority 2012, dated 2016).

Columns and labels:
Type in all cases: in vivo
[1] = test system: galium (catchweed bedstraw, Galium aparine); experiment: Test C pre-/postemergence: galium
Method in brief: (§1)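 Visual injury scored 0–100 (100 = complete control) against untreated controls after 13–15 greenhouse days. Surfactant-containing solvent formulations applied either to soil after sowing (loam/sand) or over 1- to 4-leaf plants, 2–18 cm tall.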

[2] = test system: canarygrass (Phalaris minor); experiment: Test C postemergence: canarygrass
From the text: (§2) At the same time, plants selected from these crop and weed species and also barley (winter barley, Hordeum vulgare), canarygrass (Phalaris minor), chickweed (common chickweed, Stellaria media) windgrass (Apera spica-venti) and deadnettle (henbit deadnettle, Lamium amplexicaule) were planted in pots containing Redi-Earth® planting medium (Scotts Company, 14111 Scottslawn Road, Marysville, Ohio 43041) comprising spaghnum peat moss, vermiculite, wetting agent and starter nutrients and treated with postemergence applications of test chemicals formulated in the same manner. Plants ranged in height from 2 to 18 cm (1- to 4-leaf stage) for postemergence treatments.
(§3) Treated plants and controls were maintained in a greenhouse for 13 to 15 days, after which time all species were compared to controls and visually evaluated. Plant response ratings, summarized in Table C, are based on a scale of 0 to 100 where 0 is no effect and 100 is complete control. A dash (-) response means no test result.

[3] = test system: johnsongrass (Sorghum halepense); experiment: Test C pre-/postemergence: johnsongrass
Method in brief: as §1

[4] = test system: field violet (Viola arvensis); experiment: Test D pre-/postemergence: field violet
Method in brief: (§4)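 Visual ratings from 0 (no effect) to 100 (complete control) were made 14–21 days after treatment, relative to controls. Applications were preemergence to seeds in silt loam, or postemergence to 2–18 cm (1–4 leaf) plants in peat-based medium. Compounds were formulated in a surfactant-containing non-phytotoxic solvent.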

rice (Oryza sativa) = experiment: Test B flooded paddy: rice; details: Flood; 250 g ai/ha; applied to paddy water at 2-leaf stage; visually evaluated after 13 to 15 days
Method in brief: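 Visual ratings (0 = no effect, 100 = complete control) versus untreated controls were taken 13–15 days after treatment of greenhouse plants. Treatment was added to paddy water held at 3 cm depth on 2-leaf-stage seedlings.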

[5] = test system: windgrass (Apera spica-venti); experiment: Test C postemergence: windgrass
From the text: as §2, §3

[6] = test system: pigweed (Amaranthus retroflexus); experiment: Test D pre-/postemergence: pigweed
Method in brief: as §4

[7] = test system: sedge, umbrella (small-flower umbrella sedge, Cyperus difformis); experiment: Test C flooded paddy test: sedge, umbrella; details: Cyperus difformis, scale 0 to 100 (0 no effect, 100 complete control), read-out: Plant response rating, Sedge, Umbrella
Method in brief: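 Rating: visual, 0–100 (100 = complete control), versus untreated controls after 13 to 15 greenhouse days. Treatment went into paddy water held at 3 cm over the soil, on plants grown to two leaves.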

[8] = Postemergence, 31 g ai/ha, scale 0 to 100 (0 no effect, 100 complete control)
[9] = Postemergence, 62 g ai/ha, scale 0 to 100 (0 no effect, 100 complete control)
[10] = Postemergence, 125 g ai/ha, scale 0 to 100, 0 no effect, 100 complete control
[11] = Postemergence, 250 g ai/ha, scale 0 to 100
[12] = 31 g ai/ha, scale 0 to 100 (0 no effect, 100 complete control)
[13] = 62 g ai/ha, scale 0 to 100 (0 no effect, 100 complete control)
[14] = 125 g ai/ha, scale 0 to 100, 0 no effect, 100 complete control
[15] = Postemergence, 250 g ai/ha, scale 0 to 100 (0 no effect, 100 complete control)
[16] = Postemergence, 16 g ai/ha, scale 0 to 100
[17] = Preemergence, 31 g ai/ha, scale of 0 to 100, 0 is no effect, 100 is complete control
[18] = Preemergence, 62 g ai/ha, scale of 0 to 100, 0 is no effect, 100 is complete control
[19] = Preemergence, 125 g ai/ha, scale 0 to 100, 0 no effect, 100 complete control
[20] = Preemergence, 250 g ai/ha, scale 0 to 100, 0 no effect, 100 complete control
[21] = Postemergence, 8 g ai/ha, scale 0 to 100
[22] = Preemergence, 16 g ai/ha, scale 0 to 100 (0 no effect, 100 complete control)
[23] = Preemergence, 31 g ai/ha, scale 0 to 100 (0 no effect, 100 complete control)
[24] = Preemergence, 62 g ai/ha, scale 0 to 100
[25] = Preemergence, 125 g ai/ha, scale 0 to 100
[26] = Preemergence, 250 g ai/ha, scale 0 to 100

Cc1nn(-c2ccnc(C(F)(F)F)c2)nc1Cc1ccnc(C(F)(F)F)c1 [Compound 137]
Plant response rating, Galium [1, 8]: 45 | Plant response rating, Galium [1, 9]: 70 | Plant response rating, Galium [1, 10]: 70 | Plant response rating, Galium [1, 11]: 70 | Plant response rating, Canarygrass [2, 12]: 45 | Plant response rating, Canarygrass [2, 13]: 60 | Plant response rating, Canarygrass [2, 14]: 70 | Plant response rating, Canarygrass ([2]; 250 g ai/ha, scale 0 to 100): 75 | Plant response rating, Johnsongrass [3, 8]: 5 | Plant response rating, Johnsongrass [3, 9]: 40 | Plant response rating, Johnsongrass [3, 10]: 80 | Plant response rating, Johnsongrass [3, 11]: 90 | Plant response rating: Field Violet [4, 8]: 70 | Plant response rating: Field Violet [4, 9]: 85 | Plant response rating: Field Violet [4, 10]: 90 | Plant response rating: Field Violet [4, 15]: 95 | Plant response rating, Field Violet [4, 16]: 50 | Plant response rating, Rice (0 to 100 scale, 0 is no effect, 100 is complete control) (rice (Oryza sativa)): 40 | Plant response rating, Windgrass [5, 12]: 40 | Plant response rating, Windgrass [5, 13]: 50 | Plant response rating, Windgrass [5, 14]: 70 | Plant response rating, Windgrass ([5]; 250 g ai/ha, scale 0 to 100): 90 | Plant response rating: Pigweed [6, 8]: 90 | Plant response rating: Pigweed [6, 9]: 95 | Plant response rating: Pigweed [6, 10]: 100 | Plant response rating: Pigweed [6, 15]: 100 | Plant response rating, Pigweed [6, 16]: 90

Cc1nn(-c2ccc(F)c(F)c2)nc1Oc1ccnc(C(F)(F)F)c1 [Compound 145]
Plant response rating, Galium [1, 8]: 80 | Plant response rating, Galium [1, 9]: 80 | Plant response rating, Galium [1, 10]: 90 | Plant response rating, Galium [1, 11]: 95 | Plant response rating, Galium [1, 17]: 60 | Plant response rating, Galium [1, 18]: 98 | Plant response rating, Galium [1, 19]: 100 | Plant response rating, Galium [1, 20]: 100 | Plant response rating, Canarygrass [2, 12]: 15 | Plant response rating, Canarygrass [2, 13]: 40 | Plant response rating, Canarygrass [2, 14]: 50 | Plant response rating, Canarygrass ([2]; 250 g ai/ha, scale 0 to 100): 90 | Plant response rating, Johnsongrass [3, 8]: 10 | Plant response rating, Johnsongrass [3, 9]: 20 | Plant response rating, Johnsongrass [3, 10]: 70 | Plant response rating, Johnsongrass [3, 11]: 75 | Plant response rating, Johnsongrass [3, 17]: 0 | Plant response rating, Johnsongrass [3, 18]: 35 | Plant response rating, Johnsongrass [3, 19]: 100 | Plant response rating, Johnsongrass [3, 20]: 100 | Plant response rating: Field Violet [4, 8]: 75 | Plant response rating: Field Violet [4, 9]: 95 | Plant response rating: Field Violet [4, 10]: 95 | Plant response rating, Field Violet [4, 21]: 70 | Plant response rating, Field Violet [4, 16]: 80 | Plant response rating, Rice (0 to 100 scale, 0 is no effect, 100 is complete control) (rice (Oryza sativa)): 80 | Plant response rating, Windgrass [5, 12]: 50 | Plant response rating, Windgrass [5, 13]: 70 | Plant response rating, Windgrass [5, 14]: 90 | Plant response rating, Windgrass ([5]; 250 g ai/ha, scale 0 to 100): 90 | Plant response rating: Pigweed [6, 8]: 95 | Plant response rating: Pigweed [6, 9]: 100 | Plant response rating: Pigweed [6, 10]: 100 | Plant response rating, Pigweed [6, 21]: 20 | Plant response rating, Pigweed [6, 16]: 70

Cc1nn(-c2ccc(F)cc2)nc1Cc1ccnc(C(F)(F)F)c1 [Compound 16, 4-[[2-(4-fluorophenyl)-5-methyl-2H-1,2,3-triazol-4-yl]methyl]-2-(trifluoromethyl)pyridine]
pest or weed control at 62 g/ha ([7]; Flood (flooded paddy test), 62 g ai/ha, visual rating after 13 to 15 days): 90% | pest or weed control at 125 g/ha ([7]; Flood (flooded paddy test), 125 g ai/ha, visual rating after 13 to 15 days): 95% | pest or weed control at 250 g/ha ([7]; Flood (flooded paddy test), 250 g ai/ha, visual rating after 13 to 15 days): 95% | pest or weed control at 31 g/ha ([7]; Flood, 31 g ai/ha): 80% | Plant response rating, Galium [1, 8]: 60 | Plant response rating, Galium [1, 9]: 65 | Plant response rating, Galium [1, 10]: 80 | Plant response rating, Galium [1, 11]: 90 | Plant response rating, Galium [1, 17]: 100 | Plant response rating, Galium [1, 18]: 100 | Plant response rating, Galium [1, 19]: 100 | Plant response rating, Galium [1, 20]: 100 | Plant response rating, Canarygrass [2, 12]: 20 | Plant response rating, Canarygrass [2, 13]: 60 | Plant response rating, Canarygrass [2, 14]: 60 | Plant response rating, Canarygrass ([2]; 250 g ai/ha, scale 0 to 100): 90 | Plant response rating, Johnsongrass [3, 8]: 0 | Plant response rating, Johnsongrass [3, 9]: 0 | Plant response rating, Johnsongrass [3, 10]: 45 | Plant response rating, Johnsongrass [3, 11]: 45 | Plant response rating: Field Violet [4, 8]: 20 | Plant response rating: Field Violet [4, 9]: 30 | Plant response rating: Field Violet [4, 10]: 70 | Plant response rating: Field Violet [4, 15]: 80 | Plant response rating, Field Violet [4, 16]: 0 | Plant response rating, Field Violet [4, 22]: 0 | Plant response rating, Field Violet [4, 23]: 30 | Plant response rating, Field Violet [4, 24]: 80 | Plant response rating, Field Violet [4, 25]: 90 | Plant response rating, Field Violet [4, 26]: 100 | Plant response rating, Windgrass [5, 12]: 45 | Plant response rating, Windgrass [5, 13]: 50 | Plant response rating, Windgrass [5, 14]: 50 | Plant response rating, Windgrass ([5]; 250 g ai/ha, scale 0 to 100): 50 | Plant response rating: Pigweed [6, 8]: 70 | Plant response rating: Pigweed [6, 9]: 80 | Plant response rating: Pigweed [6, 10]: 90 | Plant response rating: Pigweed [6, 15]: 100 | Plant response rating, Pigweed [6, 16]: 50 | Plant response rating, Pigweed [6, 22]: 25 | Plant response rating, Pigweed [6, 23]: 80 | Plant response rating, Pigweed [6, 24]: 80 | Plant response rating, Pigweed [6, 25]: 90 | Plant response rating, Pigweed [6, 26]: 100

Fc1ccc(-n2nc(Cc3ccnc(C(F)(F)F)c3)c(OCC(F)(F)F)n2)cc1 [Compound 142]
Plant response rating, Galium [1, 8]: 80 | Plant response rating, Galium [1, 9]: 80 | Plant response rating, Galium [1, 10]: 90 | Plant response rating, Galium [1, 11]: 90 | Plant response rating, Galium [1, 17]: 60 | Plant response rating, Galium [1, 18]: 80 | Plant response rating, Galium [1, 19]: 100 | Plant response rating, Galium [1, 20]: 100 | Plant response rating, Canarygrass [2, 12]: 45 | Plant response rating, Canarygrass [2, 13]: 80 | Plant response rating, Canarygrass [2, 14]: 85 | Plant response rating, Canarygrass ([2]; 250 g ai/ha, scale 0 to 100): 100 | Plant response rating, Johnsongrass [3, 8]: 55 | Plant response rating, Johnsongrass [3, 9]: 70 | Plant response rating, Johnsongrass [3, 10]: 80 | Plant response rating, Johnsongrass [3, 11]: 80 | Plant response rating, Johnsongrass [3, 17]: 90 | Plant response rating, Johnsongrass [3, 18]: 98 | Plant response rating, Johnsongrass [3, 19]: 100 | Plant response rating, Johnsongrass [3, 20]: 100 | Plant response rating, Rice (0 to 100 scale, 0 is no effect, 100 is complete control) (rice (Oryza sativa)): 60 | Plant response rating, Windgrass [5, 12]: 80 | Plant response rating, Windgrass [5, 13]: 80 | Plant response rating, Windgrass [5, 14]: 85 | Plant response rating, Windgrass ([5]; 250 g ai/ha, scale 0 to 100): 95
